Source: US20240270801A1, “EPITOPE PEPTIDE OF HUMAN ALPHA-SYNUCLEIN AND PHARMACEUTICAL COMPOSITION INCLUDING SAID PEPTIDE” (Sumitomo Pharma Co., Ltd., priority 2021, published 2024)
Non-standard residues stand in square brackets, D forms with d. No end group written: not given here. Ahx = NCCCCCC(=O)O

How the values were obtained:
human αSyn = assay: Antibody-inducing ability in mice: ELISA antibody titer of immune serum with respect to human αSyn; format: in vivo, mouse; set-up: key to Antibody titer with respect to human αSyn, relative to control: log titer relative to control conjugate (control = 1); settings: for Antibody titer with respect to human αSyn (N = 4 − 6, mean ± standard deviation): Example 2, serum 2 weeks after second administration
Method: (§1) Using the various AJ peptide-human αSyn peptide conjugates produced in Example 1, an antibody-inducing ability with respect to human αSyn in mice was evaluated. The various AJ-human αSyn peptide conjugates (250 μg/mouse) or KLH-DMPVDPDN (25 μg/mouse) in physiological saline were intramuscularly administered to balb/c mice (females, 6 weeks old, CLEA Japan, Inc.) twice at a 2-week interval for immunization using aluminum hydroxide (Alum) (InvivoGen, 50 μg/mouse) as an adjuvant. As a negative control, physiological saline (100 μL/mouse) comprising the same amount of aluminum hydroxide was administered twice. Two weeks after the second administration, serum was recovered to evaluate the antibody titer with respect to human αSyn by ELISA.
ELISA was performed by the following method. 96-well plates were coated with human αSyn (Sigma) at 0.2 μg/well. After washing with PBST (Phosphate Buffered Saline comprising 0.05% Tween) once, blocking was performed with 3% skim milk (FUJIFILM Wako Pure Chemical Corporation). After washing with PBST three times, diluted serum was added to cause a reaction at room temperature for 1 hour. Furthermore, after washing with PBST three times, Goat anti-mouse IgG-HRP (abcam) was added to cause a reaction at room temperature for 1 hour. After washing with PBST three times, SureBlue TMB Microwell Peroxidase Substrate (KPL) was added to cause a reaction at room temperature for 10 minutes while light shielding. An equal volume of a TMB Stop Solution (KPL) was added to stop the reaction, and the absorbance at 450 nm was measured. ELISA with respect to aggregated human αSyn was performed by coating with the aggregated human αSyn (Stress Marq) at 15 ng/well instead of human αSyn in the above-mentioned method. […]
The antibody-inducing ability of the produced various human αSyn peptide conjugates with respect to human αSyn and aggregated human αSyn in the mice was evaluated by the method described in Example 2 using the antibody titers with respect to human αSyn and aggregated human αSyn of the mouse immune serum. […] In Table 6, the antibody titer of AJ-p242, AJ-p244, AJ-p347, or AJ-p361 is shown with the antibody titer of AJ-p150 as a control being 1 (logarithm). In addition, the antibody titers of AJ-p229, AJ-p237, and AJ-p298 are shown with the antibody titer of AJ-p54 as a control being 1 (logarithm). […]

aggregated human αSyn [1] = assay: Antibody-inducing ability in cynomolgus monkeys: ELISA antibody titer with respect to aggregated human αSyn; format: in vivo; settings: i.m. three times at 2-week interval, Alum; AJ conjugates 2,000 μg/monkey, KLH-DMPVDPDN 75 μg/monkey; FIG. 4B
Method: The antibody-inducing ability of the AJ-human αSyn peptide conjugate with respect to human αSyn and aggregated human αSyn in cynomolgus monkeys was evaluated. The AJ-human αSyn peptide conjugates (AJ-p54, AJ-p150, AJ-p283, AJ-p142, and AJ-p273) (2,000 μg/monkey) and KLH-DMPVDPDN (75 μg/monkey) were intramuscularly administered to cynomolgus monkeys (males, 3 to 7 years old, SNBL, Ltd.) three times at a 2-week interval using Alum (InvivoGen, 200 μg/monkey) as an adjuvant. Blood was collected before administration and 4, 6, 8, and 10 weeks after the first administration to recover the serum. ELISA was performed by the following method.
96-well plates were coated with human αSyn (Sigma-Aldrich) or aggregated human αSyn (StressMarq Biosciences Inc.) at 0.2 μg/well or 15 ng/well. After washing with PBST once, blocking was performed with 3% skim milk (FUJIFILM Wako Pure Chemical Corporation). After washing with PBST three times, diluted serum was added to cause a reaction at room temperature for 1 hour. Furthermore, after washing with PBST three times, Goat anti-Monkey IgG-HRP (Bio-Rad Laboratories, Inc.) was added to cause a reaction at room temperature for 1 hour. […] An equal volume of a TMB Stop Solution (KPL) was added to stop the reaction, and the absorbance at 450 nm was measured.

aggregated human αSyn [2] = assay: Antibody-inducing ability in mice: ELISA antibody titer of immune serum with respect to aggregated human αSyn; format: in vivo, mouse; settings: for Antibody titer with respect to aggregated human αSyn (N = 4 − 6, mean ± standard deviation): Example 2, serum 2 weeks after second administration; for Antibody titer with respect to aggregated human αSyn, relative to control: mice
Method: as §1
ELISA was performed by the following method. 96-well plates were coated with human αSyn (Sigma) at 0.2 μg/well. After washing with PBST (Phosphate Buffered Saline comprising 0.05% Tween) once, blocking was performed with 3% skim milk (FUJIFILM Wako Pure Chemical Corporation). After washing with PBST three times, diluted serum was added to cause a reaction at room temperature for 1 hour. Furthermore, after washing with PBST three times, Goat anti-mouse IgG-HRP (abcam) was added to cause a reaction at room temperature for 1 hour. After washing with PBST three times, SureBlue TMB Microwell Peroxidase Substrate (KPL) was added to cause a reaction at room temperature for 10 minutes while light shielding. An equal volume of a TMB Stop Solution (KPL) was added to stop the reaction, and the absorbance at 450 nm was measured. ELISA with respect to aggregated human αSyn was performed by coating with the aggregated human αSyn (Stress Marq) at 15 ng/well instead of human αSyn in the above-mentioned method.
The antibody-inducing ability of the AJ-human αSyn peptide conjugates (AJ-p54, AJ-p54-KLH, and AJ-DMPVDPDN) produced in Example 1 with respect to human αSyn and aggregated human αSyn in mice was evaluated. Physiological saline or the AJ-human αSyn peptide conjugate (250 μg/mouse) was intramuscularly administered to balb/c mice (females, 6 weeks old, CLEA Japan, Inc.) twice at a 2-week interval using Alum (InvivoGen, 50 μg/mouse) as an adjuvant. Furthermore, KLH-DMPVDPDN (25 μg/mouse) was administered using Alum (InvivoGen, 50 μg/mouse) as an adjuvant. Two weeks after the second administration, serum was recovered to evaluate the antibody titer by ELISA. ELISA was performed by the method described in Example 2.
The antibody-inducing ability of the produced various human αSyn peptide conjugates with respect to human αSyn and aggregated human αSyn in the mice was evaluated by the method described in Example 2 using the antibody titers with respect to human αSyn and aggregated human αSyn of the mouse immune serum. […] In Table 6, the antibody titer of AJ-p242, AJ-p244, AJ-p347, or AJ-p361 is shown with the antibody titer of AJ-p150 as a control being 1 (logarithm). In addition, the antibody titers of AJ-p229, AJ-p237, and AJ-p298 are shown with the antibody titer of AJ-p54 as a control being 1 (logarithm).
The antibody-inducing ability of the AJ-human αSyn peptide conjugates with a modified linker with respect to human αSyn and aggregated human αSyn in the mice was evaluated using the antibody titers with respect to human αSyn and aggregated human αSyn of the mouse immune serum. […] In Table 8, the antibody titers of the AJ-human αSyn peptide conjugates with various modified linkers comprising p54 are shown with the antibody titer of AJ-p54 as a control being 1 (logarithm). In addition, the antibody titers of the AJ-human αSyn peptide conjugates with various modified linkers comprising p150 are shown with the antibody titer of AJ-p150 as a control being 1 (logarithm).

aggregated human αSyn [3] = molecular target: aggregated human αSyn (Homo sapiens, UniProt P37840); assay: Aggregated human αSyn-neutralizing effect of antibody induced in mice: phosphorylation of human αSyn in SH-SY5Y cells; format: cell-based; set-up: purchased Stress Marq (StressMarq Biosciences Inc.); settings: antibody (100 μg/mL) induced in C57BL/6 mice by the vaccine; FIG. 1B, isotype control = 100
Method: The aggregated human αSyn-neutralizing effect of the antibody induced in the mice by the AJ-human αSyn peptide conjugate (AJ-p54) produced in Example 1 was evaluated. Physiological saline or the AJ-human αSyn peptide conjugate (250 μg/mouse) was intramuscularly administered to C57BL/6 mice (males, 6 weeks old, CLEA Japan, Inc.) four times at a 2-week interval using CFA (DIFCO) as an adjuvant. Furthermore, KLH-DMPVDPDN (25 μg/mouse) was administered using Alum (InvivoGen, 50 μg/mouse) as an adjuvant. Two weeks after the fourth administration, serum was recovered. After recovering the antibodies comprised in the serum by Protein G HP SpinTrap (Cytiva), the human αSyn- and aggregated human αSyn-neutralizing effect was evaluated by a method described below.
As the human αSyn- and aggregated human αSyn-neutralizing effect, the influence on phosphorylation of human αSyn in SH-SY5Y cells (ATCC) was evaluated. The SH-SY5Y cells were seeded in a 96-well plate at 2×10^4 cells/well and cultured under the conditions of 37° C. and 5% CO2. […] After fixing the cells with a 4% paraformaldehyde/phosphate buffer solution (FUJIFILM Wako Pure Chemical Corporation), phosphorylated human αSyn was stained with a fluorescence-labeled anti-phosphorylated αSyn antibody (Cell Signaling). The amount of phosphorylated human αSyn was evaluated by image analysis using ArrayScan (Thermo Fisher Scientific Inc.). […]

[4] = balb/c mice, i.m. twice at 2-week interval, Alum, AJ conjugates 250 μg/mouse, KLH-DMPVDPDN 25 μg/mouse
[5] = Example 4, balb/c mice, i.m. twice at 2-week interval, Alum, AJ conjugates 250 μg/mouse, KLH-DMPVDPDN 25 μg/mouse

Sequence | Antibody titer with respect to human αSyn (N = 4 − 6, mean ± standard deviation) (human αSyn; [4]) | Induction of the antibody to aggregated human αSyn in cynomolgus monkeys (aggregated human αSyn [1]) | Antibody titer with respect to aggregated human αSyn (N = 4 − 6, mean ± standard deviation) (aggregated human αSyn [2]; [4]) | Induction of the antibody to human αSyn (in words) (human αSyn; Example 3, mice) | Antibody titer (N = 4 − 6, mean ± standard deviation) with respect to human αSyn (human αSyn; Example 3, mice, same manner as Example 2) | Induction of the antibody to human αSyn (in words) (human αSyn; Example 4, balb/c mice) | Antibody titer with respect to human αSyn (mean ± standard deviation) (human αSyn; [5]) | Antibody titer with respect to human αSyn, relative to control (human αSyn; Example 9, mice, N = 4, titer of AJ-p150 or AJ-p54 as control being 1 (logarithm)) | Antibody titer with respect to human αSyn, relative to control (human αSyn; Example 10, modified linker, mice, titer of AJ-p54 or AJ-p150 as control being 1 (logarithm)) | Phosphorylation of human αSyn in SH-SY5Y cells to which aggregated human αSyn was added (aggregated human αSyn [3]) | Induction of the antibody to aggregated human αSyn (in words) (aggregated human αSyn [2]; Example 4, balb/c mice) | Antibody titer with respect to aggregated human αSyn (mean ± standard deviation) (aggregated human αSyn [2]; [5]) | Antibody titer with respect to aggregated human αSyn, relative to control (aggregated human αSyn [2]; Example 9, N = 4, titer of AJ-p150 or AJ-p54 as control being 1 (logarithm)) | Antibody titer with respect to aggregated human αSyn, relative to control (aggregated human αSyn [2]; Example 10, modified linker, titer of AJ-p54 or AJ-p150 as control being 1 (logarithm))
ELKLIFLHRLKRLRKRLKRKXKKTQLGKND (ELKLIFLHRLKRLRKRLKRK[Ahx]KKTQLGKND) [AJ-p273] | 3328 ± 3278 | not induced | 704 ± 896 |  |  |  |  |  |  |  |  |  |  | 
ELKLIFLHRLKRLRKRLKRKXKKDQLGKNE (ELKLIFLHRLKRLRKRLKRK[Ahx]KKDQLGKNE) [AJ-p54, AJ peptide linked to p54 via ε-Acp (X)] | 4096 ± 2896 |  | 768 ± 862 | induced to the same extent | 1434 ± 1510 | induced | 1434 ± 1510 | 1 | 1 | inhibited | induced | 768 ± 296 | 1 | 1
